Experimental data reported in patent publication US10875876B2, “Cyclized sulfamoylarylamide derivatives and the use thereof as medicaments for the treatment of hepatitis B” (priority 2015, dated 2020).
Like-named read-outs stand apart in the source and are kept apart here.

Columns and labels:
[1] = Cytotoxicity in HepG2 cells, Resazurin assay; details: human, HepG2 cells, TOX-HepG2-4 d CC50 (μM), HepG2 cells incubated for 4 days, viability by Resazurin assay
HBV = experiment: anti HBV activity, HepG2.117 cell line, intracellular HBV DNA by realtime PCR; format: cell-based; details: HepG2.117 cell line (Tet-off), 3 days of treatment, intracellular HBV DNA quantified by realtime PCR, read-out: HBV-AVE-HepG2.117 EC50
Experimental: The anti HBV activity was measured using the HepG2.117 cell line, a stable, inducibly HBV producing cell line, which replicates HBV in the absence of doxicycline (Tet-off system). For the antiviral assay, HBV replication was induced, followed by a treatment with serially diluted compound in 96-well plates in duplicate. After 3 days of treatment, the antiviral activity was determined by quantification of intracellular HBV DNA using realtime PCR and an HBV specific primer set and probe.

[2] = Hepatitis B virus, HepG2.117, 72 h

| Structure (SMILES) | CC50 at 4 days [1] [µM] | EC50 (HBV; [2]) [nM] | EC50 (HBV) [nM] |
| --- | --- | --- | --- |
| C[C@H]1C=Cc2c(cn(C)c2C(=O)Nc2ccc(F)c(Cl)c2F)S(=O)(=O)N1 (single isomer, unassigned) [Compound 52, (3*S)—N-(3-chloro-2,4-difluoro-phenyl)-3,7-dimethyl-1,1-dioxo-2,3-dihydropyrrolo[3,4-f]thiazepine-6-carboxamide] | > 25 | 56 |  |
| C[C@H]1CCc2c(cn(C)c2C(=O)Nc2ccnc(C(F)(F)F)c2)S(=O)(=O)N1 (single isomer, unassigned) [Compound 53, (3*S)-3,7-dimethyl-1,1-dioxo-N-[2-(trifluoromethyl)-4-pyridyl]-2,3,4,5-tetrahydropyrrolo[3,4-f]thiazepine-6-carboxamide] | > 25 | 190 |  |
| C[C@H]1CCc2c(cn(C)c2C(=O)Nc2ccc(F)c(Cl)c2F)S(=O)(=O)N1 (single isomer, unassigned) [Compound 54, (3*S)—N-(3-chloro-2,4-difluoro-phenyl)-3,7-dimethyl-1,1-dioxo-2,3,4,5-tetrahydropyrrolo[3,4-f]thiazepine-6-carboxamide] | > 25 | 4 |  |
| C[C@H]1CCc2c(cn(C)c2C(=O)Nc2ccc(F)c(C(F)F)c2)S(=O)(=O)N1 (single isomer, unassigned) [Compound 55, (3*S)—N-[3-(difluoromethyl)-4-fluoro-phenyl]-3,7-dimethyl-1,1-dioxo-2,3,4,5-tetrahydropyrrolo[3,4-f]thiazepine-6-carboxamide] | > 25 | 3 |  |
| C[C@H]1CCc2c(cn(C)c2C(=O)Nc2ccc(F)c(C#N)c2)S(=O)(=O)N1 (single isomer, unassigned) [Compound 56, (3*S)—N-(3-cyano-4-fluoro-phenyl)-3,7-dimethyl-1,1-dioxo-2,3,4,5-tetrahydropyrrolo[3,4-f]thiazepine-6-carboxamide] | > 25 | 10 |  |
| C[C@H]1CCc2c(cn(C)c2C(=O)Nc2ccnc(Br)c2)S(=O)(=O)N1 (single isomer, unassigned) [Compound 57, (3*S)—N-(2-bromo-4-pyridyl)-3,7-dimethyl-1,1-dioxo-2,3,4,5-tetrahydropyrrolo[3,4-f]thiazepine-6-carboxamide] | > 25 | 13 |  |
| Cn1cc2c(c1C(=O)Nc1ccnc(C(F)(F)F)c1)CCC(C(F)(F)F)NS2(=O)=O (single isomer, unassigned) [Compound 59a, 7-methyl-1,1-dioxo-3-(trifluoromethyl)-N-[2-(trifluoromethyl)-4-pyridyl]-2,3,4,5-tetrahydropyrrolo[3,4-f]thiazepine-6-carboxamide] | > 25 |  | > 500 |
| Cn1cc2c(c1C(=O)Nc1ccc(F)c(C#N)c1)CCC(C(F)(F)F)NS2(=O)=O (single isomer, unassigned) [Compound 60a, N-(3-cyano-4-fluoro-phenyl)-7-methyl-1,1-dioxo-3-(trifluoromethyl)-2,3,4,5-tetrahydropyrrolo[3,4-f]thiazepine-6-carboxamide] | > 25 |  | 55 |
| CC(C)C1C=Cc2c(cn(C)c2C(=O)Nc2ccc(F)c(F)c2)S(=O)(=O)N1 (single isomer, unassigned) [Compound 79a, N-(3,4-difluorophenyl)-3-isopropyl-7-methyl-1,1-dioxo-2,3-dihydropyrrolo[3,4-f]thiazepine-6-carboxamide] | > 25 |  | 43 |
| Cn1cc2c(c1C(=O)Nc1ccc(F)c(F)c1)OCC(C1CCOCC1)NS2(=O)=O (single isomer, unassigned) [Compound 89a, N-(3,4-difluorophenyl)-7-methyl-1,1-dioxo-3-tetrahydropyran-4-yl-3,4-dihydro-2H-pyrrolo[3,4-b][1,4,5]oxathiazepine-6-carboxamide] | > 25 |  | 190 |
| Cn1cc2c(c1C(=O)Nc1ccc(F)c(F)c1)OC[C@@H](C(O)C1CC1)NS2(=O)=O (single isomer, unassigned) [Compound 92a] | > 24 |  | 31 |
| CC(C)C(O)C1COc2c(cn(C)c2C(=O)Nc2ccc(F)c(F)c2)S(=O)(=O)N1 (single isomer, unassigned) [Compound 114a, N-(3,4-difluorophenyl)-3-(1-hydroxy-2-methyl-propyl)-7-methyl-1,1-dioxo-3,4-dihydro-2H-pyrrolo[3,4-b][1,4,5]oxathiazepine-6-carboxamide] | > 25 |  | 22 |
| Cn1cc2c(c1C(=O)Nc1ccc(F)c(C#N)c1)CCC(C(C)(C)O)NS2(=O)=O (single isomer, unassigned) [Compound 116a, N-(3-cyano-4-fluoro-phenyl)-3-(1-hydroxy-1-methyl-ethyl)-7-methyl-1,1-dioxo-2,3,4,5-tetrahydropyrrolo[3,4-f]thiazepine-6-carboxamide] | > 25 |  | 22 |
| CCC1(C)COc2c(cn(C)c2C(=O)Nc2ccc(F)c(F)c2)S(=O)(=O)N1 (single isomer, unassigned) [Compound 134a, N-(3,4-difluorophenyl)-3-ethyl-3,7-dimethyl-1,1-dioxo-2,4-dihydropyrrolo[3,4-b][1,4,5]oxathiazepine-6-carboxamide] | > 25 | 8 |  |
| CCC(O)[C@@H]1COc2c(cn(C)c2C(=O)Nc2ccc(F)c(F)c2)S(=O)(=O)N1 (single isomer, unassigned) [Compound 142a, N-(3,4-difluorophenyl)-3-(1-hydroxypropyl)-7-methyl-1,1-dioxo-3,4-dihydro-2H-pyrrolo[3,4-b][1,4,5]oxathiazepine-6-carboxamide] | > 25 | 65 |  |
| CCC(O)[C@@H]1COc2c(cn(C)c2C(=O)Nc2ccc(F)c(C(F)F)c2)S(=O)(=O)N1 (single isomer, unassigned) [Compound 144a, N-[3-(difluoromethyl)-4-fluoro-phenyl]-3-(1-hydroxypropyl)-7-methyl-1,1-dioxo-3,4-dihydro-2H-pyrrolo[3,4-b][1,4,5]oxathiazepine-6-carboxamide] | > 25 |  | 19 |
| Cn1cc2c(c1C(=O)Nc1cc(F)c(F)c(F)c1)CCC(C(C)(C)O)NS2(=O)=O (single isomer, unassigned) [Compound 149a, 3-(1-hydroxy-1-methyl-ethyl)-7-methyl-1,1-dioxo-N-(3,4,5-trifluorophenyl)-2,3,4,5-tetrahydropyrrolo[3,4-f]thiazepine-6-carboxamide] | > 25 |  | > 125 |
| Cn1cc2c(c1C(=O)Nc1ccc(F)c(C(F)F)c1)CCC(C(C)(C)O)NS2(=O)=O (single isomer, unassigned) [Compound 150a, N-[3-(difluoromethyl)-4-fluoro-phenyl]-3-(1-hydroxy-1-methyl-ethyl)-7-methyl-1,1-dioxo-2,3,4,5-tetrahydropyrrolo[3,4-f]thiazepine-6-carboxamide] | > 25 |  | > 125 |
| CC(NCC(F)(F)F)C1COc2c(cn(C)c2C(=O)Nc2ccc(F)c(C#N)c2)S(=O)(=O)N1 (single isomer, unassigned) [Compound 161a, N-(3-cyano-4-fluoro-phenyl)-7-methyl-1,1-dioxo-3-[1-(2,2,2-trifluoroethylamino)ethyl]-3,4-dihydro-2H-pyrrolo[3,4-b][1,4,5]oxathiazepine-6-carboxamide] | > 25 |  | 49 |
| Cc1cc(CC2(C)COc3c(cn(C)c3C(=O)Nc3ccc(F)c(F)c3)S(=O)(=O)N2)no1 (single isomer, unassigned) [Compound 162a, N-(3,4-difluorophenyl)-3,7-dimethyl-3-[(5-methylisoxazol-3-yl)methyl]-1,1-dioxo-2,4-dihydropyrrolo[3,4-b][1,4,5]oxathiazepine-6-carboxamide] | > 25 |  | 33 |
| Cc1cccc(CC2(C)COc3c(cn(C)c3C(=O)Nc3ccc(F)c(F)c3)S(=O)(=O)N2)n1 (single isomer, unassigned) [Compound 172a, N-(3,4-difluorophenyl)-3,7-dimethyl-3-[(6-methyl-2-pyridyl)methyl]-1,1-dioxo-2,4-dihydropyrrolo[3,4-b][1,4,5]oxathiazepine-6-carboxamide] | > 25 | 72 |  |
| Cc1cc(CC2(C)COc3c(cn(C)c3C(=O)Nc3ccc(F)c(F)c3)S(=O)(=O)N2)n(C)n1 (single isomer, unassigned) [Compound 175a, N-(3,4-difluorophenyl)-3-[(2,5-dimethylpyrazol-3-yl)methyl]-3,7-dimethyl-1,1-dioxo-2,4-dihydropyrrolo[3,4-b][1,4,5]oxathiazepine-6-carboxamide] | > 22.9 |  | 21 |
| Cc1cc(CC2(C)COc3c(cn(C)c3C(=O)Nc3ccc(F)c(C(F)F)c3)S(=O)(=O)N2)n(C)n1 (single isomer, unassigned) [Compound 176a, N-[3-(difluoromethyl)-4-fluoro-phenyl]-3-[(2,5-dimethylpyrazol-3-yl)methyl]-3,7-dimethyl-1,1-dioxo-2,4-dihydropyrrolo[3,4-b][1,4,5]oxathiazepine-6-carboxamide] | > 25 | 12 |  |
| Cn1cc2c(c1C(=O)Nc1ccc(F)c(F)c1)OCC(C)(Cc1cccnc1)NS2(=O)=O (single isomer, unassigned) [Compound 199a, N-(3,4-difluorophenyl)-3,7-dimethyl-1,1-dioxo-3-(3-pyridylmethyl)-2,4-dihydropyrrolo[3,4-b][1,4,5]oxathiazepine-6-carboxamide] | > 25 |  | 30 |
